PubChem BioAssay (NCI)
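Cultured in 96-well plates, cells were exposed to test compound for 48 hours across five concentrations. The concentration for 50% growth inhibition is given as GI50. TGI: concentration producing complete growth inhibition.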

Columns and labels:
Assay in all cases: inhibition of tumour cell growth, NCI panel, 48 h
SR leukemia = tested on: SR leukemia
UO-31 renal = tested on: UO-31 renal
HCT-15 colon = tested on: HCT-15 colon
A498 renal = tested on: A498 renal
HOP-92 NSCLC = tested on: HOP-92 NSCLC
HOP-62 NSCLC = tested on: HOP-62 NSCLC
M14 melanoma = tested on: M14 melanoma
CAKI-1 renal = tested on: CAKI-1 renal
786-0 renal = tested on: 786-0 renal
KM12 colon = tested on: KM12 colon

SMILES	GI50 (SR leukemia) [nM]	TGI (SR leukemia) [nM]	GI50 (UO-31 renal) [nM]	TGI (UO-31 renal) [nM]	GI50 (HCT-15 colon) [nM]	TGI (HCT-15 colon) [nM]	GI50 (A498 renal) [nM]	TGI (A498 renal) [nM]	GI50 (HOP-92 NSCLC) [nM]	TGI (HOP-92 NSCLC) [nM]	GI50 (HOP-62 NSCLC) [nM]	TGI (HOP-62 NSCLC) [nM]	GI50 (M14 melanoma) [nM]	TGI (M14 melanoma) [nM]	GI50 (CAKI-1 renal) [nM]	TGI (CAKI-1 renal) [nM]	GI50 (786-0 renal) [nM]	GI50 (KM12 colon) [nM]	TGI (KM12 colon) [nM]	TGI (786-0 renal) [nM]
COc1cc(/C=C2\CN(C)C/C(=C\c3cc(OC)c(OC)c(OC)c3)C2=O)cc(OC)c1OC	240	1410	280	818	214	555	447	1590	774	2800	360	1130	306	1570	288	951	270	195	394	–
CCOC(=O)c1ccc(N(CCOS(C)(=O)=O)CCOS(C)(=O)=O)cc1C	2830	> 100000	23100	45900	28200	> 100000	24100	73300	36700	> 100000	17600	55000	40500	> 100000	6320	27100	16700	90400	> 100000	42200
COc1cc(/C=C/C(=O)c2ccc(Nc3ncnc4ccccc34)cc2)cc(OC)c1	556	3170	10500	28600	7630	48700	5860	> 100000	1320	52700	7130	22100	3950	14600	19300	> 100000	4200	1770	5380	14500
CCOC(=O)/C(=C/c1ccc([N+](=O)[O-])cc1)C(=O)c1ccccc1	2850	> 100000	1660	3180	1990	4510	2330	5370	2010	4450	2280	6070	2110	5010	2560	7130	1820	2160	4650	3450
CCCCCCCC/C=C/CCCCCCCC1=NC(C)(C)CN1C(C)C	1020	2420	1430	2810	1510	2900	2040	5210	819	2600	1580	2920	1530	2860	1160	2380	1580	1620	2970	2930
Oc1ccc(CNCc2ccccc2)c2cccnc12	–	> 100000	–	> 24400	–	> 100000	–	> 100000	–	570	–	> 51200	–	12000	–	> 100000	–	–	> 100000	> 24700
